The subject of one series is IL-6. The experiment in a line: Human bone cell co-culture system, IL-6 production. The format is cell-based. The note with it: for IC50: human bone co-culture system of Example 12. The protocol:
(§1) The generation of osteoblastic cells from normal adult femoral travecular bone from patients without evidence of metabolic bone disease was carried out as previously described (Kung Sutherland et al., Osteoporosis International 5:335-343, 1995; Wong et al., J Bone Miner 5:803-813, 1990). Bone fragments were cleaned of adherent tissue and blood and cultured for 4 weeks in medium containing Ham's F12 supplemented with 28 mM HEPES, pH 7.4, 10% FCS, 1.1 mM CaCl2, 2 mM glutamine, and 1% antibiotic-antimycotic agent. Upon confluency, the cells were harvested and immortalized using a retroviral vector (pLXSN) containing the neomycin resistance gene and the human papillomaviral (HPV18) E6 and E7 concogenes (International Journal of Oncology 6:167-174, 1995). The immortalized osteoblastic cells were selected in medium containing G418 (600 µg/ml).
(§2) The human U937 moncytic cell line (cloned from the commercially available cells by serial dilution) was maintained in RPMI 1640 medium containing 10% FCS and 1% antibiotic-antimycotic agent.
The co-culture system was established as follows. Human osteoblastic cells were plated in 96-well dishes at a density of 5 x 10^3 cells/well. U937 cells in RPMI medium (5 x 10^4 cells/well) were layered over the osteoblasts. The formation of osteoclast-like cells was induced with 100 nM PMA. To determine the effects of compounds or the neutralizing antibodies to IL-6 (Sigma) and GM-CSF (Pharmingen) on the formation of osteoclast-like cells, the compounds or the antibodies were added 30 minutes prior to the addition of PMA. The cultures were stopped after 96 hrs and processed for histochemical or immunohistochemical analyses.

Series [1] is described as follows: 3-day immature rat uterine bioassay. The note with it: s.c. administration.
A short description of series [2]: 28-day uterine bioassay in ovariectomized rats. The format is in vivo.
Another series relates to U2OS IL-6 ER-Minus. The experiment in a line: IL-6 production in ER-minus U2OS osteosarcoma cells. Format: cell-based. To be noted: Homo sapiens.
The next series has as its system GM-CSF. In words: Human bone cell co-culture system, GM-CSF production. The format is cell-based. The protocol: as §1, §2
The co-culture system was established as follows. Human osteoblastic cells were plated in 96-well dishes at a density of 5 x 10^3 cells/well. U937 cells in RPMI medium (5 x 10^4 cells/well) were layered over the osteoblasts. The formation of osteoclast-like cells was induced with 100 nM PMA. […]

A further series has as its target T1, human full-length ER-α (Homo sapiens, UniProt P03372).
T1 construct: expression vectors for human full-length ER-α or ER-β; expressed in transfected cells
T1 sequence (P03372 1-595): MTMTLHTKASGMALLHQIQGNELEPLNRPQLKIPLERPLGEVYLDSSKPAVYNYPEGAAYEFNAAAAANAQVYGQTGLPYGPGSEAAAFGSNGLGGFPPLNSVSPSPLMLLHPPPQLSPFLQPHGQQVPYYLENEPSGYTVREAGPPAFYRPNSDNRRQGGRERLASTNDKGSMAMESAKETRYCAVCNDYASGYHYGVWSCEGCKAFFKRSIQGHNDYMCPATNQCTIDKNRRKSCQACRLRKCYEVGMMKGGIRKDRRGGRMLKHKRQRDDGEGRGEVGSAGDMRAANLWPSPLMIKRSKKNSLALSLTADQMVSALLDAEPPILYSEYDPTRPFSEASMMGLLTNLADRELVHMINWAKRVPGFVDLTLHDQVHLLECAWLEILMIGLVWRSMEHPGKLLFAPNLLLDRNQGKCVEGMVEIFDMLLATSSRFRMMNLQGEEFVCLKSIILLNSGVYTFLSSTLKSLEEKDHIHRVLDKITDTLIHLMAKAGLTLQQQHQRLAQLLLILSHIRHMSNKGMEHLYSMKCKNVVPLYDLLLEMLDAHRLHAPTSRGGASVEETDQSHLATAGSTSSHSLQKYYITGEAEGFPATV
In words: IL-6 production in U2OS osteosarcoma cells stably transfected with ER-α. The format is cell-based. The procedure:
(§3) Human U2OS osteosarcoma cells (ATCC) were stably transfected with expression vectors for human full-length ER-α or ER-β, respectively, using standard molecular biology techniques. Stable subclones were generated that expressed high levels of ER-α or ER-β mRNA. The expression of ER-α and ER-β was confirmed using RNase protection analysis.
(§4) Cells were plated into 96-well plates at a density of 8000 cells per well in phenol red-free media with charcoal-stripped fetal calf serum. Twenty-four hours later, cells were either treated with vehicle (0.2% DMSO) or test compound at the concentrations indicated (in 0.2% DMSO). Thirty minutes later cells were stimulated with 10 ng/ml IL-1β and 10 ng/ml TNF-α. Twenty-four hours later the media supernatant was analyzed for cytokine production (IL-6) using commercially available ELISA kits following the manufacturer's instructions. Cytokine production in the presence of vehicle (0.2% DMSO) was set to 100%.

A further series deals with T2, human full-length ER-β (Homo sapiens, UniProt Q92731).
T2 construct: expression vectors for human full-length ER-α or ER-β; expressed in transfected cells
T2 sequence (Q92731 whole entry): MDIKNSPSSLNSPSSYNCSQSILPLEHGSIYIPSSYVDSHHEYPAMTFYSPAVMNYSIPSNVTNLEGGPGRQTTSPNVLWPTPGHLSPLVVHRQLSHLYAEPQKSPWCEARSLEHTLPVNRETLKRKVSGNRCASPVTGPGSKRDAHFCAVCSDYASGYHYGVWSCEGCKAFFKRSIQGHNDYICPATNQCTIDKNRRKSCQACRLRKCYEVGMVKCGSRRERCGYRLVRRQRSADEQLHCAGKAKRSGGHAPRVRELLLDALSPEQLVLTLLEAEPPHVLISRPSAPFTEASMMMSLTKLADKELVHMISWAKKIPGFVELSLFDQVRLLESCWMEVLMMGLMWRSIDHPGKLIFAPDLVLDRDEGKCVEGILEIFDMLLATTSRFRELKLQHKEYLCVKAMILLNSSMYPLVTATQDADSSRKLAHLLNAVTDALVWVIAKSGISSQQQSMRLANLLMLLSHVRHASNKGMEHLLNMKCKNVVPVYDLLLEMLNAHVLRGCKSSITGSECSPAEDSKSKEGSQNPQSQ
The experiment in a line: IL-6 production in U2OS osteosarcoma cells stably transfected with ER-β. The format is cell-based. To be noted: for ER subtype specificity (ER-β versus ER-α): comparison of the U2OS IL-6 IC50 values of Table 4. The procedure:
as §3, §4

The target in a further series is T3, human recombinant ER-α (Homo sapiens, UniProt P03372).
T3 sequence (P03372 1-595): T1 sequence (P03372 1-595)
The experiment in a line: Solid phase ER binding assay (3H-estradiol competition), ER-α.

A further series concerns the target human recombinant ER-β (Homo sapiens, UniProt Q92731). The experiment in a line: Solid phase ER binding assay (3H-estradiol competition), ER-β. To be noted: ER binding assay of Example 18.
Setting [3] is: ER binding assay of Example 18, read-out: ER Binding Assay ER-α (Ki).

This note sets out measurements from patent EP1246814B1, “COMPOUNDS AND METHODS FOR MODULATION OF ESTROGEN RECEPTORS” (SIGNAL PHARMACEUTICALS, INC., priority 1999, dated 2001).

Molecules are shown by their SMILES. Where a name gives a salt, the structure may show the parent alone. Read-outs that look alike come from different tables or passages of the source.

human recombinant ER-β, sequence (Q92731 whole entry): as above

For the compound `C[C@]12CC[C@@H]3c4ccc(O)cc4CC[C@H]3[C@@H]1CC[C@@H]2O` [Estradiol, 17β-estradiol], in the series with IL-6 (co-culture system), the “production of IL-6” value was “suppress the production of IL-6”. Moreover, the “increase in uterine weight” value in [1] stood at 4.5 fold; in series [2] (ovariectomized rats, 28-day, daily s.c. injection), 550%. The IC50 in the series on U2OS IL-6 ER-Minus is > 1000 nM. Further, in the series on GM-CSF (co-culture system), the “production of GM-CSF” value is reported as “reduced the production of GM-CSF”.
Take `CCN(CC)CCOc1ccc(-c2c(-c3ccccc3)c(=O)oc3ccccc23)cc1` ["L-20", reference compound]: the IC50 with IL-6 (read-out: IL-6 Activity (IC50)), against human full-length ER-α, against human full-length ER-β and with U2OS IL-6 ER-Minus was > 1000 nM throughout. Further, at human recombinant ER-α (setting [3]), the Ki was > 10000 nM.
Regarding `O=C(c1ccc(OCCN2CCCCC2)cc1)c1c(-c2ccc(O)cc2)sc2cc(O)ccc12` [Raloxifene HCl, Raloxifene Hydrochloride], the “increase in uterine weight” value is “up to 50%” in series [1] (1mg/kg dose) and ~70% in [2] (female, rat, in vivo, sc, 28 day). Also, the IC50 in the series on U2OS IL-6 ER-Minus was > 1000 nM.
Take `CCC(=C(c1ccc(O)cc1)c1ccc(OCCN(C)C)cc1)c1ccccc1` [4-Hydroxy-Tamoxifen]: the IC50 in the series on U2OS IL-6 ER-Minus is > 1000 nM.
Consider `CCN(CC)CCOc1ccc(-c2c(-c3ccccc3)c(=O)oc3cc(O)ccc23)cc1` [Compound No. 38], for which the results for the Ki on human recombinant ER-β and on human recombinant ER-α (setting [3]) were 1560 nM and 690 nM, respectively. The IC50 was 175 nM with IL-6 (read-out: IL-6 Activity (IC50)), > 1000 nM on human full-length ER-α, 165 nM against human full-length ER-β and > 10000 nM with U2OS IL-6 ER-Minus. Also, at human full-length ER-β, the “ER subtype specificity (ER-β versus ER-α)” value is listed as “specificity for ER-β over ER-α”.
As for `O=c1oc2cc(O)ccc2c(-c2ccc(OCCN3CCCCC3)cc2)c1-c1ccc(Cl)cc1` [compound 16], the IC50 against human full-length ER-α is 325 nM; against human full-length ER-β, 51 nM; in the series on U2OS IL-6 ER-Minus, > 1000 nM. Moreover, the “ER subtype specificity (ER-β versus ER-α)” value on human full-length ER-β is “specificity for ER-β over ER-α”.
With `O=c1oc2cc(O)ccc2c(Cc2ccc(OCCN3CCCCC3)cc2)c1-c1ccccc1` [Compound No. 1, 3-PHENYL-4-[4-(2-{PIPERIDIN-1-YL})ETHOXY]-BENZYL-7-HYDROXYCOUMARIN], the IC50 with IL-6 (read-out: IC50 with respect to IL-6) turned out to be 10 nM; in the series with GM-CSF (human bone co-culture system of Example 12, read-out: IC50 with respect to GM-CSF), 38 nM. Further, on human recombinant ER-α (read-out: Solid Phase ER Binding Ki (nM) ER-α, ER-α 15 nM, 30 nM 3H-estradiol, room temperature, average of at least 3 experiments), the inhibition constant Ki amounted to 1.4 nM. Further, the “increase in uterine weight” value in series [1] (not statistically different from vehicle (PEG-400)) is listed as ~30%.

The IC50 is the point on the concentration scale where inhibition reaches its midpoint. In general, Ki refers to a dissociation constant, usually derived from enzyme kinetics or from competition with a known ligand.
